Consider one compound from paper PMC6933707, “Palmitoylethanolamide counteracts substance P-induced mast cell activation in vitro by stimulating diacylglycerol lipase activity” (Journal of Neuroinflammation, 2019).

Read-outs that look alike come from different tables or passages of the source.

Series [1] relates to RBL-2H3 cells. The class given is cell-based. Conditions: 15 min. On the procedure:
The relative number of live and dead cells was measured after 15 min in RBL-2H3 cells (2 × 10^5 cells/well) stimulated with SP (10 μM) and treated with PEA (10 μM) by using MultiTox-Glo multiplex cytotoxicity kit, according to the manufacturer’s instructions (Promega Italia). Relative fluorescence units (RFU) were measured by using a GloMax Multi Detection System (Promega Italia).

Series [2] deals with T1, DAGL-β (Rattus norvegicus, UniProt P0C1S9).
T1 construct: constitutive DAGL-β activity in RBL-2H3 cell membranes; endogenous in cells; host or cells: RBL-2H3
T1 sequence (P0C1S9 1-668): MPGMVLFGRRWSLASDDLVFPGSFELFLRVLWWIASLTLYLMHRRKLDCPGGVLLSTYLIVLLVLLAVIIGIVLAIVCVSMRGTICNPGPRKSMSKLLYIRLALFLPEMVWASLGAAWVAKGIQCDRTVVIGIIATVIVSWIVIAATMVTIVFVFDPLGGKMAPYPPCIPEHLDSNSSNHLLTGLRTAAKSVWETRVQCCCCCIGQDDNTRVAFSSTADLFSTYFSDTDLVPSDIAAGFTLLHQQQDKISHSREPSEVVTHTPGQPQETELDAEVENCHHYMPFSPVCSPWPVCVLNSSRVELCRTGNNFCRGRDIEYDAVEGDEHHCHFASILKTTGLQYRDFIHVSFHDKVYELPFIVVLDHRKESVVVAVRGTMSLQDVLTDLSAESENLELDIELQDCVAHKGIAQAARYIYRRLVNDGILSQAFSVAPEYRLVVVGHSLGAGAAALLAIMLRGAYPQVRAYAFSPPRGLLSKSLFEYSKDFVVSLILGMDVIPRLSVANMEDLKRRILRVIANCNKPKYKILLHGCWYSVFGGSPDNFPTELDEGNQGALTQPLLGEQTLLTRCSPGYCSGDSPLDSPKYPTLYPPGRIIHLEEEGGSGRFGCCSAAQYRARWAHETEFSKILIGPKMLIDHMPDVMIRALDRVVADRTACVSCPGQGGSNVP
Put plainly: DAGL-β enzyme activity assay (RBL-2H3 cell membranes). As to conditions: 25 μM. The class given is biochemical. The protocol: DAGL-β enzyme activity was assessed by using membrane preparations (100 μg of protein) obtained from RBL-2H3 cells, and 1-[^14C]oleoyl-2-arachidonoylglycerol (1.0 mCi/mmol, 50 μM, [40, 41]), as substrate in the presence of vehicle or increasing concentrations of PEA (1–25 μM) in Tris-HCl 50 mM pH 7.4 or in Tris-HCl 50 mM pH 7.4 and CaCl2 10 mM. After the incubation (20 min at 37 °C), the protocol followed the same procedures as above reported for DAGL-α enzyme activity assay. Data were expressed as % of activity of DAGL-β.

Series [3] has as its system RBL-2H3 cells. Briefly: Quantitative real-time PCR of PEA/2-AG receptors and metabolic enzymes. In kind it is cell-based, rat. As to conditions: cells stimulated 15 min with SP 10 μM or PEA 10 μM or both, vs unstimulated. An excerpt: The mRNA expression of PEA target genes (Cnr1, Cnr2, Trpv1, Ppara, and Gpr55), as well as PEA and 2-AG biosynthetic (N-acyl phosphatidylethanolamine-specific phospholipase D, Napepld, Dagla and Daglb) and catabolic enzyme genes (fatty acid amide hydrolase, Faah; N-acylethanolamine-hydrolyzing acid amidase, Naaa; and monoacylglycerol lipase, Mgl), was studied by comparison of transcriptional expression in unstimulated RBL-2H3 cells (plated on 100 mm diameter Petri dishes) vs. the expression of these targets and enzymes in RBL-2H3 cells treated with PEA (10 μM), or stimulated with SP (10 μM) in the presence and absence of PEA (10 μM), for 15 min at 37 °C in 5% CO2 atmosphere. Total RNA was purified, quantified and reverse transcribed as previously reported. For each target, all mRNA sequences were aligned and common primers were designed (Table 1). Quantitative real-time PCR was performed by an iCycler-iQ5 in a 20 μl reaction mixture using 20 ng of cDNA. Assays were performed in quadruplicate (maximum ΔCt of replicate samples < 0.5). Optimized primers for SYBR-green analysis and optimum annealing temperatures were designed by the Allele-Id software version 7.0 (Biosoft International) and were synthesized (HPLC-purification grade) by MWG-Biotech. […] Results were expressed as fold expression compared with a reference condition (2^^−∆∆ct formula).

[4] abbreviates: SP (10 μM)-stimulated cells, PEA 10 μM, vs vehicle-stimulated cells.
[5] abbreviates: substance alone 10 μM, vs vehicle.

On to `CCCCCCCCCCCCCCCC(=O)NCCO` [PEA, Palmitoylethanolamide], for which, in series [1] (setting [4]), the cell viability entry was “did not alter” and the cytotoxicity entry is on record as “did not alter”. In series [1] (setting [5]), the cell viability entry is recorded as “No effect” and the cytotoxicity result is listed as “No effect”. Moreover, in series [2], the “stimulation of the activity of DAGL-β” value was found to be 33 ± 5.43%. Also, the “mRNA expression of Cnr2, Napepld, Naaa, Daglb, Faah and Mgl” value in series [3] was “no statistically significant change”.
